Test results published in PubChem BioAssay (NCI).
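Five compound concentrations were applied to cells in 96-well plates for 48 hours; endpoints were derived by simple linear interpolation of the resulting dose-response curve. GI50 is the concentration that inhibits growth by half. The concentration for full growth arrest is given as TGI.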

How the values were obtained:
Test in all cases: NCI-60 cell line screen, 48 h
CCRF-CEM leukemia = system: CCRF-CEM leukemia
HL-60(TB) leukemia = system: HL-60(TB) leukemia
K-562 leukemia = system: K-562 leukemia
NCI-H522 lung = system: NCI-H522 lung
786-0 renal = system: 786-0 renal
A498 renal = system: A498 renal
A549 NSCLC = system: A549 NSCLC
ACHN renal = system: ACHN renal
BT-549 breast = system: BT-549 breast
CAKI-1 renal = system: CAKI-1 renal
COLO 205 colon = system: COLO 205 colon
DU-145 prostate = system: DU-145 prostate
EKVX NSCLC = system: EKVX NSCLC
HCC-2998 colon = system: HCC-2998 colon
HCT-116 colon = system: HCT-116 colon
HCT-15 colon = system: HCT-15 colon
HOP-62 NSCLC = system: HOP-62 NSCLC
HOP-92 NSCLC = system: HOP-92 NSCLC
HT29 colon = system: HT29 colon
LOX IMVI melanoma = system: LOX IMVI melanoma
MCF7 breast = system: MCF7 breast
MDA-MB-231 breast = system: MDA-MB-231 breast
MOLT-4 leukemia = system: MOLT-4 leukemia
NCI-H226 lung = system: NCI-H226 lung
NCI-H23 lung = system: NCI-H23 lung
NCI-H460 lung = system: NCI-H460 lung
NCI/ADR-RES ovarian = system: NCI/ADR-RES ovarian
OVCAR-3 ovarian = system: OVCAR-3 ovarian
OVCAR-4 ovarian = system: OVCAR-4 ovarian
OVCAR-5 ovarian = system: OVCAR-5 ovarian
OVCAR-8 ovarian = system: OVCAR-8 ovarian
PC-3 prostate = system: PC-3 prostate
RPMI-8226 leukemia = system: RPMI-8226 leukemia
RXF 393 renal = system: RXF 393 renal
SF-268 CNS = system: SF-268 CNS
SF-295 CNS = system: SF-295 CNS
SF-539 CNS = system: SF-539 CNS
SK-MEL-2 melanoma = system: SK-MEL-2 melanoma
SK-MEL-5 melanoma = system: SK-MEL-5 melanoma
SK-OV-3 ovarian = system: SK-OV-3 ovarian
SN12C renal = system: SN12C renal
SNB-19 CNS = system: SNB-19 CNS
SNB-75 CNS = system: SNB-75 CNS
SR leukemia = system: SR leukemia
T-47D breast = system: T-47D breast
TK-10 renal = system: TK-10 renal
UACC-257 melanoma = system: UACC-257 melanoma
UACC-62 melanoma = system: UACC-62 melanoma
UO-31 renal = system: UO-31 renal

CC(C)(Oc1ccc(/C=C/C(=O)c2ccccc2)cc1)C(=O)Nc1c(Cl)cccc1Cl
TGI (CCRF-CEM leukemia): > 31.6 µM
TGI (HL-60(TB) leukemia): 23.6 µM
TGI (K-562 leukemia): > 100 µM
TGI (NCI-H522 lung): 9.86 µM

Cc1ccc(-c2nc(C(Cl)Cl)nc3cc(C)nn23)cc1
GI50 (786-0 renal): > 100 µM
TGI (786-0 renal): > 100 µM
GI50 (A498 renal): 1.75 µM
TGI (A498 renal): 4.7 µM
GI50 (A549 NSCLC): 1.33 µM
TGI (A549 NSCLC): 6.21 µM
GI50 (ACHN renal): 0.783 µM
TGI (ACHN renal): 3.6 µM
GI50 (BT-549 breast): 9.68 µM
TGI (BT-549 breast): > 100 µM
GI50 (CAKI-1 renal): 1.59 µM
TGI (CAKI-1 renal): 5.42 µM
GI50 (CCRF-CEM leukemia): 4.82 µM
TGI (CCRF-CEM leukemia): > 100 µM
GI50 (COLO 205 colon): 1.04 µM
TGI (COLO 205 colon): 3.41 µM
GI50 (DU-145 prostate): 0.432 µM
TGI (DU-145 prostate): 2.81 µM
GI50 (EKVX NSCLC): 2.19 µM
TGI (EKVX NSCLC): 6.45 µM
GI50 (HCC-2998 colon): 1.18 µM
TGI (HCC-2998 colon): 2.59 µM
GI50 (HCT-116 colon): 2.09 µM
TGI (HCT-116 colon): > 100 µM
GI50 (HCT-15 colon): 1.24 µM
TGI (HCT-15 colon): 4.61 µM
GI50 (HL-60(TB) leukemia): 1.33 µM
TGI (HL-60(TB) leukemia): 5.46 µM
GI50 (HOP-62 NSCLC): 1.31 µM
TGI (HOP-62 NSCLC): 8.58 µM
GI50 (HOP-92 NSCLC): 1.95 µM
TGI (HOP-92 NSCLC): 7.64 µM
GI50 (HT29 colon): 0.458 µM
TGI (HT29 colon): > 100 µM
GI50 (K-562 leukemia): 2.3 µM
TGI (K-562 leukemia): > 100 µM
GI50 (LOX IMVI melanoma): 4.01 µM
TGI (LOX IMVI melanoma): > 100 µM
GI50 (MCF7 breast): 1.97 µM
TGI (MCF7 breast): > 100 µM
GI50 (MDA-MB-231 breast): 2.34 µM
TGI (MDA-MB-231 breast): > 100 µM
GI50 (MOLT-4 leukemia): 1.82 µM
TGI (MOLT-4 leukemia): > 100 µM
GI50 (NCI-H226 lung): > 100 µM
TGI (NCI-H226 lung): > 100 µM
GI50 (NCI-H23 lung): 0.742 µM
TGI (NCI-H23 lung): 2.75 µM
GI50 (NCI-H460 lung): 0.515 µM
TGI (NCI-H460 lung): 3.01 µM
GI50 (NCI-H522 lung): 2.14 µM
TGI (NCI-H522 lung): > 100 µM
GI50 (NCI/ADR-RES ovarian): 1.18 µM
TGI (NCI/ADR-RES ovarian): 5.73 µM
GI50 (OVCAR-3 ovarian): 1.47 µM
TGI (OVCAR-3 ovarian): 3.42 µM
GI50 (OVCAR-4 ovarian): 1.07 µM
TGI (OVCAR-4 ovarian): 3.87 µM
GI50 (OVCAR-5 ovarian): 2.22 µM
TGI (OVCAR-5 ovarian): 6.72 µM
GI50 (OVCAR-8 ovarian): 1.67 µM
TGI (OVCAR-8 ovarian): > 100 µM
GI50 (PC-3 prostate): 2.55 µM
TGI (PC-3 prostate): > 100 µM
GI50 (RPMI-8226 leukemia): 5.02 µM
TGI (RPMI-8226 leukemia): > 100 µM
GI50 (RXF 393 renal): 0.673 µM
TGI (RXF 393 renal): 2.36 µM
GI50 (SF-268 CNS): 2.69 µM
TGI (SF-268 CNS): > 100 µM
GI50 (SF-295 CNS): 2.1 µM
TGI (SF-295 CNS): 6.71 µM
GI50 (SF-539 CNS): 4.14 µM
TGI (SF-539 CNS): > 100 µM
GI50 (SK-MEL-2 melanoma): > 100 µM
TGI (SK-MEL-2 melanoma): > 100 µM
GI50 (SK-MEL-5 melanoma): 3.5 µM
TGI (SK-MEL-5 melanoma): > 100 µM
GI50 (SK-OV-3 ovarian): 2.28 µM
TGI (SK-OV-3 ovarian): 8.62 µM
GI50 (SN12C renal): 5.88 µM
TGI (SN12C renal): > 100 µM
GI50 (SNB-19 CNS): 2.34 µM
TGI (SNB-19 CNS): > 100 µM
GI50 (SNB-75 CNS): 1.48 µM
TGI (SNB-75 CNS): 8.39 µM
GI50 (SR leukemia): 0.342 µM
TGI (SR leukemia): > 100 µM
GI50 (T-47D breast): 2.86 µM
TGI (T-47D breast): > 100 µM
GI50 (TK-10 renal): 3.55 µM
TGI (TK-10 renal): > 100 µM
GI50 (UACC-257 melanoma): 3.26 µM
TGI (UACC-257 melanoma): > 100 µM
GI50 (UACC-62 melanoma): 3.12 µM
TGI (UACC-62 melanoma): > 100 µM
GI50 (UO-31 renal): 3.38 µM
TGI (UO-31 renal): > 100 µM
